Source: US20230026616A1, “PYRIMIDOIMIDAZOLE COMPOUNDS USED AS DNA-PK INHIBITORS” (MEDSHINE DISCOVERY INC., priority 2019, published 2023)

Tests used:
[1] = tested on: human non-small cell lung cancer NCI-H1703 cell subcutaneous xenograft tumor; experiment: In vivo pharmacodynamics, NCI-H1703 subcutaneous xenograft tumor model; parameters: species or system BALB/c nude mice; details: for Tumor volume (Day 0): Day 0 (baseline), Mean ± SEM; for Tumor volume (Day 21): Day 21, Mean ± SEM; for T/Cweight: day 21; for Tumor weight (PG-D21): day 21, Mean ± SEM
Experimental: Experimental purpose: To study the in vivo pharmacodynamics of the test compounds in BALB/c nude mice model with human non-small cell lung cancer NCI-H1703 cell subcutaneous xenograft tumor
Experimental animals: Female BALB/c nude mice, 6-8 weeks old, weighing 18-22 grams; supplier: Shanghai Sippe-Bk Lab Animal Co., Ltd.
Human non-small cell lung cancer NCI-H1703 cells were cultured in vitro in RPMI1640 medium with 10% fetal bovine serum, 100 U/mL penicillin and 100 μg/mL streptomycin at 37° C. in a 5% CO2 incubator. Conventional digestion with trypsin-EDTA was performed twice a week for passage. When the cell saturation was 80%-90% and the number reached the requirement, the cells were collected, counted, and seeded.
0.2 mL (5×10^6 cells) NCI-H1703 cells (added with matrigel, volume ratio of 1:1) were subcutaneously inoculated into the right back of each mouse, and the group administration started when the average tumor volume reached about 130 mm^3.
Compound 5 was prepared into 3 mg/mL, 6 mg/mL, 9 mg/mL suspension solutions, and compound 17 was prepared into 9 mg/mL suspensions, and the solvent was 0.5% HPMC+1% Tween 80.
Tumor diameters were measured with vernier calipers twice a week. The calculation formula of tumor volume is: V=0.5a×b^2, wherein a and b represent the long and short diameters of the tumor, respectively.
The antitumor efficacy of the compounds was evaluated by TGI (%) or relative tumor proliferation rate T/C (%). Relative tumor proliferation rate T/C (%)=TRTV/CRTV×100% (TRTV: means RTV in the treatment group; CRTV: means RTV in the negative control group). The relative tumor volume (RTV) was calculated according to the results of tumor measurement. The calculation formula is RTV=Vt/V0, wherein V0 is the tumor volume measured at the time of group administration (i.e., day 0), and Vt is the tumor volume at one measurement. Data of the same day was taken for TRTV and CRTV.
TGI (%), reflecting tumor growth inhibition rate. TGI (%)=[1−(average tumor volume at the end of administration of a certain treatment group-average tumor volume at the beginning of administration of this treatment group)/(average tumor volume at the end of treatment in the solvent control group-average volume at the beginning of treatment in the solvent control group tumor volume)]×100%. After the experiment, the tumor weight was detected, and the T/weight percentage was calculated. T weight and C weight represent the tumor weight of the administration group and the solvent control group, respectively.
Statistical analysis was performed using SPSS software based on RTV data at the end of the experiment. […] T-test was used to analyze the comparison between two groups, and one-way ANOVA was used to analyze the comparison between three or more groups. If the variance was homogeneous (F value had no significant difference), Tukey's method was used for analysis. If the variance was not homogeneous (F value had significant difference), the Games-Howell method was used to test. p<0.05 was considered a significant difference.

[2] = Pharmacokinetic evaluation in Beagle dogs; assay type: in vivo, Male Beagle dogs; details: for Tlast / AUC(0-t) / C0 / clearance / half-life / Vd / Cmax / Tmax: Beagle dog plasma; for F: Beagle dog, PO 5 mpk vs IV 1 mpk; for AUC(0-t) / C0 / clearance / half-life / Vd / Cmax / Tmax: male; for Vd: read-out: Vdss
Description: IV: intravenous injection; PO: oral; C0: instantaneous […] concentration after intravenous injection; Cmax: highest plasma concentration after administration; Tmax: time required to reach peak of drug concentration after administration; T1/2: time required for the plasma drug concentration to decrease by half, Vdss: apparent volume of distribution, refers to the proportional constant of the drug dose in vivo and the blood drug concentration when the drug reaches a dynamic equilibrium in vivo. Cl: clearance rate, refers to the […] cleared from the body per unit time; Tlast: time at the last detection point; AUC0-last: area under the drug-time curve, refers to the area covered by the plasma concentration curve and the time axis; F: a measure of the speed and degree of drug absorption into the blood circulation, which is an important indicator for evaluating the degree of drug absorption.
Test compounds were mixed with 10% dimethyl sulfoxide/50% polyethylene glycol 200/40% water, vortexed and sonicated to prepare a nearly clear solution of 1 mg/mL, then filtered through a microporous membrane for next step. Male Beagle dogs were selected and administered intravenously with the candidate compound solution at a dose of 1 mg/kg. Test compounds were mixed with 10% dimethyl sulfoxide/50% polyethylene glycol 200/40% water, vortexed and sonicated to prepare a nearly clear solution of 1 mg/mL, then filtered with a microporous membrane for next step. Male Beagle dogs were selected and orally administered with the candidate compound solution at a dose of 5 mg/kg. Whole blood was collected for a certain period of time, and plasma was prepared, then drug concentration was detected by LC-MS/MS method, and pharmacokinetic parameters were calculated by Phoenix WinNonlin software (Pharsight, USA).

Cc1cc2nncn2cc1Nc1ncc2c(n1)n(N1CC3CCC(C1)O3)c(=O)n2C [Compound 17]
Tumor volume (Day 0) ([1]; 90 mg/kg twice a day): 130 ± 13 mm^3
RTV (Day 21) ([1]; 90 mg/kg twice a day): 3.19 ± 0.46
T/C (%) (Day 21) ([1]; 90 mg/kg twice a day): 33.4%
TGI (%) (Day 21) ([1]; 90 mg/kg twice a day): 71.6%
Tumor volume (Day 21) ([1]; 90 mg/kg twice a day): 435 ± 94 mm^3
T/Cweight ([1]; 90 mg/kg): 35.9%
Tumor weight (PG-D21) ([1]; 90 mg/kg): 0.466 ± 0.103 g
tumor inhibitory effect compared with the blank control (in words) ([1]; 90 mg/kg, dosed twice a day): significant tumor inhibitory effect
Tlast ([2]; IV 1 mpk): 24 h
Tlast ([2]; PO 5 mpk): 24 h
F [2]: 92.3%
AUC(0-t) ([2]; 1 mg/kg, IV 1 mpk): 6.82 µM·h
C0 ([2]; 1 mg/kg, IV 1 mpk): 1.45 µM
clearance ([2]; 1 mg/kg, IV 1 mpk): 5.89 mL/min/kg
half-life ([2]; 1 mg/kg, IV 1 mpk): 5.04 h
Vd ([2]; 1 mg/kg, IV 1 mpk): 1.58 L/kg
AUC(0-t) ([2]; 5 mg/kg, PO 5 mpk): 31.5 µM·h
Cmax ([2]; 5 mg/kg, PO 5 mpk): 4.94 µM
Tmax ([2]; 5 mg/kg, PO 5 mpk): 1.5 h
half-life ([2]; 5 mg/kg, PO 5 mpk): 4.27 h

Cc1cc2ncnn2cc1Nc1ncc2c(n1)n(N1CC3CCC(C1)O3)c(=O)n2C [Compound 5]
Tumor volume (Day 0) ([1]; 30 mg/kg twice a day): 131 ± 10 mm^3
RTV (Day 21) ([1]; 30 mg/kg twice a day): 7.57 ± 0.53
T/C (%) (Day 21) ([1]; 30 mg/kg twice a day): 79.3%
TGI (%) (Day 21) ([1]; 30 mg/kg twice a day): 20.6%
Tumor volume (Day 21) ([1]; 30 mg/kg twice a day): 979 ± 86 mm^3
tumor inhibitory effect compared with the blank control (in words) ([1]; 30 mg/kg, administered twice a day): certain tumor inhibitory effect
T/Cweight ([1]; 30 mg/kg): 79.6%
Tumor weight (PG-D21) ([1]; 30 mg/kg): 1.031 ± 0.095 g
Tumor volume (Day 0) ([1]; 60 mg/kg twice a day): 131 ± 10 mm^3
RTV (Day 21) ([1]; 60 mg/kg twice a day): 3.31 ± 0.51
T/C (%) (Day 21) ([1]; 60 mg/kg twice a day): 34.7%
TGI (%) (Day 21) ([1]; 60 mg/kg twice a day): 72.3%
Tumor volume (Day 21) ([1]; 60 mg/kg twice a day): 427 ± 64 mm^3
T/Cweight ([1]; 60 mg/kg): 36.0%
Tumor weight (PG-D21) ([1]; 60 mg/kg): 0.467 ± 0.078 g
tumor inhibitory effect compared with the blank control (in words) ([1]; 60 mg/kg, dosed twice a day): significant tumor inhibitory effect
Tumor volume (Day 0) ([1]; 90 mg/kg twice a day): 130 ± 10 mm^3
RTV (Day 21) ([1]; 90 mg/kg twice a day): 2.64 ± 0.45
T/C (%) (Day 21) ([1]; 90 mg/kg twice a day): 27.7%
TGI (%) (Day 21) ([1]; 90 mg/kg twice a day): 79.4%
Tumor volume (Day 21) ([1]; 90 mg/kg twice a day): 351 ± 64 mm^3
T/Cweight ([1]; 90 mg/kg): 29.2%
Tumor weight (PG-D21) ([1]; 90 mg/kg): 0.379 ± 0.069 g
tumor inhibitory effect compared with the blank control (in words) ([1]; 90 mg/kg, dosed twice a day): significant tumor inhibitory effect
dose dependence of the therapeutic effect ([1]; 30, 60, 90 mg/kg twice a day): dose-dependent
Tlast ([2]; IV 1 mpk): 24 h
Tlast ([2]; PO 5 mpk): 24 h
F [2]: 279%
AUC(0-t) ([2]; 1 mg/kg, IV 1 mpk): 4.96 µM·h
C0 ([2]; 1 mg/kg, IV 1 mpk): 1.82 µM
clearance ([2]; 1 mg/kg, IV 1 mpk): 8.26 mL/min/kg
half-life ([2]; 1 mg/kg, IV 1 mpk): 4.04 h
Vd ([2]; 1 mg/kg, IV 1 mpk): 1.87 L/kg
AUC(0-t) ([2]; 5 mg/kg, PO 5 mpk): 68.3 µM·h
Cmax ([2]; 5 mg/kg, PO 5 mpk): 9.27 µM
Tmax ([2]; 5 mg/kg, PO 5 mpk): 1.67 h
half-life ([2]; 5 mg/kg, PO 5 mpk): 4.27 h
